Patent US12077503B2, “Substituted cyclic amides and their use as herbicides” (FMC CORPORATION, priority 2015, dated 2024)

Key:
Assay type in all cases: in vivo
Kochia (Kochia scoparia) [1] = assay: Test A preemergence; details: Bassia scoparia, pre-emergence, 240 h, 0 to 100 scale where 0 is no effect and 100 is complete control, read-out: Kochia plant response rating
How it was run: (§1)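 In a loam soil and sand blend, planted seeds got a preemergence directed soil spray, and young plants at the one- to two-leaf stage, 2–10 cm high, got a postemergence application; ~10 d greenhouse hold; injury rated visually, 0 = none, 100 = complete control.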

[2] = test system: barnyardgrass (Echinochloa crus-galli); assay: Test A preemergence; details: Echinochloa crus-galli, pre-emergence, 240 h, 0 to 100 scale where 0 is no effect and 100 is complete control, read-out: Barnyardgrass plant response rating
How it was run: as §1

[3] = test system: giant foxtail (Setaria faberii); assay: Test A preemergence; details: Setaria faberi, pre-emergence, 240 h, 0 to 100 scale where 0 is no effect and 100 is complete control, read-out: Foxtail, Giant plant response rating
How it was run: as §1

[4] = test system: pigweed (Amaranthus retroflexus); assay: Test A preemergence; details: Amaranthus retroflexus, pre-emergence, 240 h, 0 to 100 scale where 0 is no effect and 100 is complete control, read-out: Pigweed plant response rating
[5] = test system: ragweed (common ragweed, Ambrosia elatior); assay: Test A preemergence; details: Ambrosia artemisiifolia, pre-emergence, 240 h, 0 to 100 scale where 0 is no effect and 100 is complete control, read-out: Ragweed plant response rating
How it was run: as §1

[6] = test system: ryegrass, Italian (Italian ryegrass, Lolium multiflorum); assay: Test A preemergence; details: Lolium multiflorum, pre-emergence, 240 h, 0 to 100 scale where 0 is no effect and 100 is complete control, read-out: Ryegrass, Italian plant response rating
How it was run: as §1

[7] = test system: Galium (catchweed bedstraw, Galium aparine); assay: Test A postemergence; details: Galium, post-emergence, 240 h
How it was run: as §1

Kochia (Kochia scoparia) [8] = assay: Test A postemergence; details: Bassia scoparia, post-emergence, 240 h
How it was run: as §1

[9] = test system: barnyardgrass (Echinochloa crus-galli); assay: Test A postemergence; details: Echinochloa crus-galli, post-emergence, 240 h
How it was run: as §1

[10] = test system: blackgrass (Alopecurus myosuroides); assay: Test A postemergence; details: Alopecurus myosuroides, post-emergence, 240 h
How it was run: as §1

corn (Zea mays) = assay: Test A postemergence; details: Zea mays, post-emergence, 240 h
How it was run: as §1

[11] = test system: giant foxtail (Setaria faberii); assay: Test A postemergence; details: Setaria faberi, post-emergence, 240 h
How it was run: as §1

[12] = test system: pigweed (Amaranthus retroflexus); assay: Test A postemergence; details: Amaranthus retroflexus, post-emergence, 240 h
How it was run: as §1

[13] = test system: ragweed (common ragweed, Ambrosia elatior); assay: Test A postemergence; details: Ambrosia artemisiifolia, post-emergence, 240 h
How it was run: as §1

[14] = test system: ryegrass, Italian (Italian ryegrass, Lolium multiflorum); assay: Test A postemergence; details: Lolium multiflorum, post-emergence, 240 h
How it was run: as §1

[15] = test system: wheat (Triticum aestivum); assay: Test A postemergence; details: Triticum aestivum, post-emergence, 240 h
How it was run: as §1

[16] = test system: barnyardgrass (Echinochloa crus-galli); assay: Test B flooded paddy test; details: Echinochloa crus-galli, 250 g ai/ha, Flood; 0 to 100 scale where 0 is no effect and 100 is complete control; read-out: Barnyardgrass plant response rating
How it was run: (§2)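 Evaluation by eye, against controls, occurred 13–15 d post-treatment in a greenhouse, using a 0 (no effect) to 100 (complete control) scale. Application was into the paddy water, 3 cm deep over the soil, on 2-leaf plants.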

[17] = test system: ducksalad (Heteranthera limosa); assay: Test B flooded paddy test; details: Heteranthera limosa, 250 g ai/ha, Flood; 0 to 100 scale where 0 is no effect and 100 is complete control; read-out: Ducksalad plant response rating
How it was run: as §2

rice (Oryra sativa) = assay: Test B flooded paddy test; details: Oryza sativa, 250 g ai/ha, Flood; 0 to 100 scale where 0 is no effect and 100 is complete control; read-out: Rice plant response rating
How it was run: as §2

[18] = test system: sedge, umbrella (small-flower umbrella sedge, Cyperus difformis); assay: Test B flooded paddy test; details: Cyperus difformis, 250 g ai/ha, Flood; 0 to 100 scale where 0 is no effect and 100 is complete control; read-out: Sedge, Umbrella plant response rating
How it was run: as §2

[19] = 125 g ai/ha, preemergence, approx. 10 d

Molecule C=C(C)c1cccc([C@H]2CN(C)C(=O)[C@@H]2C(=O)Nc2cccc(F)c2C)c1 [Compound 1086] has a pest or weed control at 31 g/ha (Kochia (Kochia scoparia) [1]; 31 g ai/ha, Preemergence) of 0%, a pest or weed control at 125 g/ha (Kochia (Kochia scoparia) [1]; [19]) of 0% and a pest or weed control at 31 g/ha ([2]; 31 g ai/ha, Preemergence) of 80%. For the same molecule, the pest or weed control at 125 g/ha [2, 19] was 80%, the pest or weed control at 31 g/ha ([3]; 31 g ai/ha, Preemergence) was 90% and the pest or weed control at 125 g/ha [3, 19] was 100%. It also gave a pest or weed control at 31 g/ha ([4]; 31 g ai/ha, Preemergence) of 0%, a pest or weed control at 125 g/ha [4, 19] of 0% and a pest or weed control at 31 g/ha ([5]; 31 g ai/ha, Preemergence) of 0%. The pest or weed control at 125 g/ha [5, 19] was 0%, the pest or weed control at 31 g/ha ([6]; 31 g ai/ha, Preemergence) was 0% and the pest or weed control at 125 g/ha [6, 19] was 30%. It also gave a pest or weed control at 125 g/ha ([7]; 125 g ai/ha, postemergence, visual injury on 0 to 100 scale (0 no effect, 100 complete control), approx. 10 d, read-out: Galium plant response rating) of 20%, a pest or weed control at 31 g/ha ([7]; Postemergence, 31 g ai/ha, visual injury after approx. 10 d, 0 to 100 scale, 0 no effect, 100 complete control, read-out: Plant response rating, Galium) of 0% and a pest or weed control at 125 g/ha (Kochia (Kochia scoparia) [8]; 125 g ai/ha, postemergence, visual injury on 0 to 100 scale (0 no effect, 100 complete control), approx. 10 d, read-out: Kochia plant response rating) of 0%. The pest or weed control at 31 g/ha (Kochia (Kochia scoparia) [8]; Postemergence, 31 g ai/ha, visual injury after approx. 10 d, 0 to 100 scale, 0 no effect, 100 complete control, read-out: Plant response rating, Kochia) was 0%, the pest or weed control at 125 g/ha ([9]; 125 g ai/ha, postemergence, visual injury on 0 to 100 scale (0 no effect, 100 complete control), approx. 10 d, read-out: Barnyardgrass plant response rating) was 90% and the pest or weed control at 31 g/ha ([9]; Postemergence, 31 g ai/ha, visual injury after approx. 10 d, 0 to 100 scale, 0 no effect, 100 complete control, read-out: Plant response rating, Barnyardgrass) was 30%. For the same molecule, the pest or weed control at 125 g/ha ([10]; 125 g ai/ha, postemergence, visual injury on 0 to 100 scale (0 no effect, 100 complete control), approx. 10 d, read-out: Blackgrass plant response rating) was 0%, the pest or weed control at 31 g/ha ([10]; Postemergence, 31 g ai/ha, visual injury after approx. 10 d, 0 to 100 scale, 0 no effect, 100 complete control, read-out: Plant response rating, Blackgrass) was 0% and the plant injury at 125 g/ha (corn (Zea mays); 125 g ai/ha, postemergence, visual injury on 0 to 100 scale (0 no effect, 100 complete control), approx. 10 d, read-out: Corn plant response rating) was 30%. For the same molecule, the Corn plant response rating (crop injury, 0 = no effect, 100 = complete kill) at 31 g/ha (corn (Zea mays); Postemergence, 31 g ai/ha, visual injury after approx. 10 d, 0 to 100 scale, 0 no effect, 100 complete control) was 0%, the pest or weed control at 125 g/ha ([11]; 125 g ai/ha, postemergence, visual injury on 0 to 100 scale (0 no effect, 100 complete control), approx. 10 d, read-out: Foxtail, Giant plant response rating) was 60% and the pest or weed control at 31 g/ha ([11]; Postemergence, 31 g ai/ha, visual injury after approx. 10 d, 0 to 100 scale, 0 no effect, 100 complete control, read-out: Plant response rating, Foxtail, Giant) was 10%. For the same molecule, the pest or weed control at 125 g/ha ([12]; 125 g ai/ha, postemergence, visual injury on 0 to 100 scale (0 no effect, 100 complete control), approx. 10 d, read-out: Pigweed plant response rating) was 0%, the pest or weed control at 31 g/ha ([12]; Postemergence, 31 g ai/ha, visual injury after approx. 10 d, 0 to 100 scale, 0 no effect, 100 complete control, read-out: Plant response rating, Pigweed) was 0% and the pest or weed control at 125 g/ha ([13]; 125 g ai/ha, postemergence, visual injury on 0 to 100 scale (0 no effect, 100 complete control), approx. 10 d, read-out: Ragweed plant response rating) was 0%. It also gave a pest or weed control at 31 g/ha ([13]; Postemergence, 31 g ai/ha, visual injury after approx. 10 d, 0 to 100 scale, 0 no effect, 100 complete control, read-out: Plant response rating, Ragweed) of 0%, a pest or weed control at 125 g/ha ([14]; 125 g ai/ha, postemergence, visual injury on 0 to 100 scale (0 no effect, 100 complete control), approx. 10 d, read-out: Ryegrass, Italian plant response rating) of 0% and a pest or weed control at 31 g/ha ([14]; Postemergence, 31 g ai/ha, visual injury after approx. 10 d, 0 to 100 scale, 0 no effect, 100 complete control, read-out: Plant response rating, Ryegrass, Italian) of 0%. For the same molecule, the plant injury at 125 g/ha ([15]; 125 g ai/ha, postemergence, visual injury on 0 to 100 scale (0 no effect, 100 complete control), approx. 10 d, read-out: Wheat plant response rating) was 20%, the plant injury at 31 g/ha ([15]; Postemergence, 31 g ai/ha, visual injury after approx. 10 d, 0 to 100 scale, 0 no effect, 100 complete control, read-out: Plant response rating, Wheat) was 0% and the pest or weed control at 250 g/ha [16] was 45%. The pest or weed control at 250 g/ha [17] was 40%, the pest or weed control at 250 g/ha (rice (Oryra sativa)) was 0% and the pest or weed control at 250 g/ha [18] was 0%.
